Experiments:
[1] = target: T1, Ephrin type-B receptor 4 (Homo sapiens) (UniProt P54760); experiment: Residual activity of EPHB4 at 10 uM by microplate scintillation counting
T1 sequence (whole entry): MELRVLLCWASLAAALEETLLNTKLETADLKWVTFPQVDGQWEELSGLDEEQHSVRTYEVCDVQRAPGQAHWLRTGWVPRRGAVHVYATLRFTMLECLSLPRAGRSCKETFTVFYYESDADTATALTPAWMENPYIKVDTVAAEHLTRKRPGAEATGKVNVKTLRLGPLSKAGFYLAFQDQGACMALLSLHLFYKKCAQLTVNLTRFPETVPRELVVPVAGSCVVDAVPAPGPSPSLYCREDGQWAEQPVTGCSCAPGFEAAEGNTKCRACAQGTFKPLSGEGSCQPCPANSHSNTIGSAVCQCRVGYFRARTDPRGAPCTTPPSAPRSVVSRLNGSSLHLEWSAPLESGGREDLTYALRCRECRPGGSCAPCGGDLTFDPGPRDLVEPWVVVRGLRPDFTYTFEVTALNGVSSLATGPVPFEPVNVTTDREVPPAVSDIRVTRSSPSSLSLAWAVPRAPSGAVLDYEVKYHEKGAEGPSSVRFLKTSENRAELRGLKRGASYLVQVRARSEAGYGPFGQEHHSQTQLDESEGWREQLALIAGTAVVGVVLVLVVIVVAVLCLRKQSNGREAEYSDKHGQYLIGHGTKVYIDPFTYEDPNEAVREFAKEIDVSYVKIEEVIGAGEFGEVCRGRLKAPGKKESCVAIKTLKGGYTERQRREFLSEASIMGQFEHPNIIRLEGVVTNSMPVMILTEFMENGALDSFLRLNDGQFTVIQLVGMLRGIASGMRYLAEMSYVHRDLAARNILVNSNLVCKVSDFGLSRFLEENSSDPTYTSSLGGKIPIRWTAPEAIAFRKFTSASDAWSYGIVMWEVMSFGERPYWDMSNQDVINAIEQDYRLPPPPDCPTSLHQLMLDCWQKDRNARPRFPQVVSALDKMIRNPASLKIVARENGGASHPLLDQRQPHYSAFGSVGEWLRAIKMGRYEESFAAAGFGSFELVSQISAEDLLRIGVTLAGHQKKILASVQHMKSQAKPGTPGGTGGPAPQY

[2] = target: T2, Serine/threonine-protein kinase TAO2 (Homo sapiens) (UniProt Q9UL54); experiment: Residual activity of TAOK2 at 10 uM by microplate scintillation counting
T2 sequence (whole entry): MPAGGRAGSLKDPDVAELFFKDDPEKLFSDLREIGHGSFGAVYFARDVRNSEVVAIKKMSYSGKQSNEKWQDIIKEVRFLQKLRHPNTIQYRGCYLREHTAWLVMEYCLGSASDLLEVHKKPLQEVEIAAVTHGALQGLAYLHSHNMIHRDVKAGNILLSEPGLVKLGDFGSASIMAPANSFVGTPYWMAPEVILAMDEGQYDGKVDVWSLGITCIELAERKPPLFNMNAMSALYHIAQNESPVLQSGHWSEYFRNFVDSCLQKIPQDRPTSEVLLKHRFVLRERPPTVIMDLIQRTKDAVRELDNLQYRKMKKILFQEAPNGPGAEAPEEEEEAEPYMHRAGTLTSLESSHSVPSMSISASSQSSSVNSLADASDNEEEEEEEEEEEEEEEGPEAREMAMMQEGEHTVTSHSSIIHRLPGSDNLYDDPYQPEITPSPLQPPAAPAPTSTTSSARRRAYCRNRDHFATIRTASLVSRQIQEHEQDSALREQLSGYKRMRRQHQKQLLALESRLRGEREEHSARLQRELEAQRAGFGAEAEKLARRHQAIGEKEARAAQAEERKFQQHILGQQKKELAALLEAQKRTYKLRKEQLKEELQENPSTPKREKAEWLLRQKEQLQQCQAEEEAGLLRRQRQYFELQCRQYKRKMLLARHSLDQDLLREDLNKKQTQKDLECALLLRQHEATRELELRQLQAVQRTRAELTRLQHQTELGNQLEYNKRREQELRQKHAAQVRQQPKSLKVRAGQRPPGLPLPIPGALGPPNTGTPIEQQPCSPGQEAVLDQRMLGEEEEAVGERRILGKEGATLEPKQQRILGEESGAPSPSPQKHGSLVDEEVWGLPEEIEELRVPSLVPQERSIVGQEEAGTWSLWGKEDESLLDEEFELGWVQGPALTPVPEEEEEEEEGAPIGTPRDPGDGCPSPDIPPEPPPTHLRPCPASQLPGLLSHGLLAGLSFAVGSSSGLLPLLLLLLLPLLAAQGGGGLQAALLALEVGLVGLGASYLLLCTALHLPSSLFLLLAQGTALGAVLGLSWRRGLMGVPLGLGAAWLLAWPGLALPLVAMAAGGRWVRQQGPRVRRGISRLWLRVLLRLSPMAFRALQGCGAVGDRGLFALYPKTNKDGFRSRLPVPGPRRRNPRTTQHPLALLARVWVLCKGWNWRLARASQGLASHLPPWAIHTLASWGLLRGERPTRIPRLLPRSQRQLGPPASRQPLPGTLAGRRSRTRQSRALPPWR

[3] = target: SRSF protein kinase 1 (Homo sapiens) (UniProt Q96SB4); experiment: Residual activity of SRPK1 at 1 uM by microplate scintillation counting
[4] = target: Cyclin-dependent kinase 5/CDK5 activator 1 (Homo sapiens) (UniProt Q00535+Q15078); experiment: Residual activity of CDK5/p35NCK at 1 uM by microplate scintillation counting; type: protein-complex assay
[5] = target: T3, Serine/threonine-protein kinase Sgk1 (Homo sapiens) (UniProt O00141); experiment: Residual activity of SGK1 at 1 uM by microplate scintillation counting
T3 sequence (whole entry): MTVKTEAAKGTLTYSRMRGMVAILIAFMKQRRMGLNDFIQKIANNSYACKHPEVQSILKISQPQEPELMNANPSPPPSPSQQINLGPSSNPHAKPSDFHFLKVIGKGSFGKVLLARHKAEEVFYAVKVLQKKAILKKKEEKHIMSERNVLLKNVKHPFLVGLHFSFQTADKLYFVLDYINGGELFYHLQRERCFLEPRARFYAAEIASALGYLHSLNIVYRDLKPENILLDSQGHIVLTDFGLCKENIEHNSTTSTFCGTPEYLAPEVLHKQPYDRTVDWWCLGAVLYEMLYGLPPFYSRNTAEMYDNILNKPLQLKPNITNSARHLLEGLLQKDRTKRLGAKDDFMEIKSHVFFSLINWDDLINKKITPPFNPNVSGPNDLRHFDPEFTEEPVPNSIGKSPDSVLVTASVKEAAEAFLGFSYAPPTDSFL

Angiopoietin-1 receptor = Angiopoietin-1 receptor (Homo sapiens, UniProt Q02763); experiment: Inhibition of TIE2 by microplate scintillation counting
[6] = Residual activity of S6K at 1 uM by microplate scintillation counting
[7] = target: T3, Serine/threonine-protein kinase Sgk1 (Homo sapiens); experiment: Residual activity of SGK1 at 10 uM by microplate scintillation counting
[8] = target: CDK6/cyclin D1 (Homo sapiens) (UniProt P24385+Q00534); experiment: Residual activity of CDK6/Cyclin D1 at 1 uM by microplate scintillation counting; type: protein-complex assay

Sequence of Cyclin-dependent kinase 5/CDK5 activator 1 (Homo sapiens) (Q00535 whole entry): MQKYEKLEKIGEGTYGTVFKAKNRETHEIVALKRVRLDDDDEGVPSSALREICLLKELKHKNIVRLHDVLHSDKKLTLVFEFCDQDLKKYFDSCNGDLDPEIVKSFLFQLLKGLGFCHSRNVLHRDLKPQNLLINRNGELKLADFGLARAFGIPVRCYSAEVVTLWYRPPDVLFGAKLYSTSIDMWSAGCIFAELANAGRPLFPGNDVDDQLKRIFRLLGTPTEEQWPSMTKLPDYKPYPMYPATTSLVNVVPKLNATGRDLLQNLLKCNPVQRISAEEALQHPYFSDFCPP
Sequence of Cyclin-dependent kinase 5/CDK5 activator 1 (Homo sapiens) (Q15078 99-307 partner limits assumed): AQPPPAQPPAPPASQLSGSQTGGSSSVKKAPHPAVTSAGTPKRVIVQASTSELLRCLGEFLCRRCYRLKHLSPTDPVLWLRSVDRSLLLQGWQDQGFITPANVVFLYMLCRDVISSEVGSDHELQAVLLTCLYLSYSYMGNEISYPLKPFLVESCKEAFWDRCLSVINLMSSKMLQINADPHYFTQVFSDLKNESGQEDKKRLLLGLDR
Sequence of SRSF protein kinase 1 (Homo sapiens) (Q96SB4 whole entry): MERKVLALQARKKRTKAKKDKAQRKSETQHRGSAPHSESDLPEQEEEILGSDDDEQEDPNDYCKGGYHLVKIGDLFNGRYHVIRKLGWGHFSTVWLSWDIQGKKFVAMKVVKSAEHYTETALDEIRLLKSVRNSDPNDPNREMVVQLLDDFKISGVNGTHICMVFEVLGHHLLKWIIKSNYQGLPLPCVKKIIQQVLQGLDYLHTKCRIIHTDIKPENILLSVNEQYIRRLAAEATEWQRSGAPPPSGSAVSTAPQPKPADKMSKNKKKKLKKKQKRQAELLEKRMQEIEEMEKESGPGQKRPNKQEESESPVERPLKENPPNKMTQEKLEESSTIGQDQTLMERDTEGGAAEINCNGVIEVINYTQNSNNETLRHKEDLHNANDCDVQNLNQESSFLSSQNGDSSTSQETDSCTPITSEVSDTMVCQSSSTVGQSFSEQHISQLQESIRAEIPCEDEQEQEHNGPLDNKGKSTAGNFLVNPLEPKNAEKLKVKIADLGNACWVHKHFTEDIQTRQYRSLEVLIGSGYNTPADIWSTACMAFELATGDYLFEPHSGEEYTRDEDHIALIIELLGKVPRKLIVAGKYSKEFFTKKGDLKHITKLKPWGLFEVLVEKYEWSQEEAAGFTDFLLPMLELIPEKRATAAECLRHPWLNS
Sequence of Angiopoietin-1 receptor (Q02763 whole entry): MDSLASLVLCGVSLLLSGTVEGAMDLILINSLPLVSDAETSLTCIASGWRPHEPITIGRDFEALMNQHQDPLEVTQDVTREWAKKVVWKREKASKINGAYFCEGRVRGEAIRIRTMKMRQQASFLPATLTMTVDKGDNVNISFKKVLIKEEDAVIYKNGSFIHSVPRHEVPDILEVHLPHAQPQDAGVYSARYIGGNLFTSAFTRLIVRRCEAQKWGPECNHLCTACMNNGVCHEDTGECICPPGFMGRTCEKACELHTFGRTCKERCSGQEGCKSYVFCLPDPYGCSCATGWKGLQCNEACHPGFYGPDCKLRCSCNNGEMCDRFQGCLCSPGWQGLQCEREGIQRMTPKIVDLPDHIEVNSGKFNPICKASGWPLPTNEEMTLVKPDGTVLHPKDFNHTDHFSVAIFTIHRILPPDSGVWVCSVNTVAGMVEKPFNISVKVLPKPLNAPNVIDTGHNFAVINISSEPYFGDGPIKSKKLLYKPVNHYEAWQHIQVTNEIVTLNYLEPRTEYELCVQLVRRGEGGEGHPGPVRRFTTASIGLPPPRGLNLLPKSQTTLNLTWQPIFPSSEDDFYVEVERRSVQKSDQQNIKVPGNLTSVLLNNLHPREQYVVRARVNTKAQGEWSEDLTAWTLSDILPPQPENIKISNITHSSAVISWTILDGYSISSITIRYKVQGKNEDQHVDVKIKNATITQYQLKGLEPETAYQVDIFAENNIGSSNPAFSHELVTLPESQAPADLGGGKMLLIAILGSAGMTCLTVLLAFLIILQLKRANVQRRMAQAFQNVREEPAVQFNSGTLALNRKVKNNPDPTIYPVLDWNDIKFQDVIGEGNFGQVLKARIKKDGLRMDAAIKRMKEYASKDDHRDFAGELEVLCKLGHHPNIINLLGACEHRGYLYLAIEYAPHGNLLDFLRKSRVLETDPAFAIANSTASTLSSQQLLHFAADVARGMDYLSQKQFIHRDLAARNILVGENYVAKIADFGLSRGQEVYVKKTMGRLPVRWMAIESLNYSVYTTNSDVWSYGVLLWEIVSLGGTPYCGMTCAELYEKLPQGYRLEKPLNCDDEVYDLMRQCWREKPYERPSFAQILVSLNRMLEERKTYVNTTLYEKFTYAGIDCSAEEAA

Row | SMILES | residual activity [1] [%] | residual activity [2] [%] | residual activity [3] [%] | residual activity [4] [%] | residual activity [5] [%] | IC50 (Angiopoietin-1 receptor) [nM] | residual activity [6] [%] | residual activity [7] [%] | residual activity [8] [%]
1 | COc1cc2c(Oc3ccc(-c4nc5ccccc5s4)cc3)ncnc2cc1OCCCN1CCN(C)CC1 | 154 | 141 | 103 | 85 | 86 | 44 | 69 | 0 | 109
2 | COc1cc2c(Oc3ccc(-c4nc5ccccc5s4)cc3)ncnc2cc1OCCCN1CCCC1 | 122 | 122 | 100 | 97 | 99 | 72 | 75 | 92 | 104
3 | COc1cc2c(Oc3ccc(-c4nc5ccccc5s4)cc3F)ncnc2cc1OCCCN1CCN(C)CC1 | 99 | 129 | 104 | 86 | 96 | 88 | 95 | 117 | 100
